{"source": "patent US6632799B2", "about": "“Injectable ready-to-use solutions containing an antitumor anthracycline glycoside” (Pharmacia & Upjohn Company, priority 1985, dated 2003)", "experiment": "pH-stability profile at 55° C. of doxorubicin.HCl solutions in sterile water, 5% dextrose, 0.9% saline", "format": "physicochemical", "settings": "for Doxorubicin.HCl % stability: 55° C.", "note": "Structures can show the parent of a compound that is named as a salt."}
{"smiles": "COc1cccc2c1C(=O)c1c(O)c3c(c(O)c1C2=O)C[C@@](O)(C(=O)CO)C[C@@H]3O[C@H]1C[C@H](N)[C@H](O)[C@H](C)O1", "note": "[Doxorubicin.HCl, doxorubicin hydrochloride]", "values": [{"measurement": "Doxorubicin.HCl % stability", "setting": "5% dextrose, pH 2.0 buffer, 24 hours", "value": 75.9, "unit": "%"}, {"measurement": "Doxorubicin.HCl % stability", "setting": "5% dextrose, pH 2.0 buffer, 34 hours", "value": 68.3, "unit": "%"}, {"measurement": "Doxorubicin.HCl % stability", "setting": "5% dextrose, pH 2.0 buffer, 48 hours", "value": 54.1, "unit": "%"}, {"measurement": "Doxorubicin.HCl % stability", "setting": "5% dextrose, pH 2.0 buffer, 72 hours", "value": 38.4, "unit": "%"}, {"measurement": "Doxorubicin.HCl % stability", "setting": "5% dextrose, pH 2.5 buffer, 0 hours", "value": 100.0, "unit": "%"}, {"measurement": "Doxorubicin.HCl % stability", "setting": "5% dextrose, pH 2.5 buffer, 8 hours", "value": 96.4, "unit": "%"}, {"measurement": "Doxorubicin.HCl % stability", "setting": "5% dextrose, pH 2.5 buffer, 16 hours", "value": 92.6, "unit": "%"}, {"measurement": "Doxorubicin.HCl % stability", "setting": "5% dextrose, pH 2.5 buffer, 24 hours", "value": 89.5, "unit": "%"}, {"measurement": "Doxorubicin.HCl % stability", "setting": "5% dextrose, pH 2.5 buffer, 34 hours", "value": 85.5, "unit": "%"}, {"measurement": "Doxorubicin.HCl % stability", "setting": "5% dextrose, pH 2.5 buffer, 48 hours", "value": 76.2, "unit": "%"}, {"measurement": "Doxorubicin.HCl % stability", "setting": "5% dextrose, pH 2.5 buffer, 72 hours", "value": 66.3, "unit": "%"}, {"measurement": "Doxorubicin.HCl % stability", "setting": "5% dextrose, pH 3.0 buffer, 0 hours", "value": 100.0, "unit": "%"}, {"measurement": "Doxorubicin.HCl % stability", "setting": "5% dextrose, pH 3.0 buffer, 16 hours", "value": 96.6, "unit": "%"}, {"measurement": "Doxorubicin.HCl % stability", "setting": "5% dextrose, pH 3.0 buffer, 24 hours", "value": 92.7, "unit": "%"}, {"measurement": "Doxorubicin.HCl % stability", "setting": "5% dextrose, pH 3.0 buffer, 48 hours", "value": 83.3, "unit": "%"}, {"measurement": "Doxorubicin.HCl % stability", "setting": "5% dextrose, pH 3.0 buffer, 72 hours", "value": 76.4, "unit": "%"}, {"measurement": "Doxorubicin.HCl % stability", "setting": "5% dextrose, pH 3.0 buffer, 96 hours", "value": 68.0, "unit": "%"}, {"measurement": "Doxorubicin.HCl % stability", "setting": "5% dextrose, pH 3.0 buffer, 120 hours", "value": 61.1, "unit": "%"}, {"measurement": "Doxorubicin.HCl % stability", "setting": "5% dextrose, pH 3.5 buffer, 0 hours", "value": 100.0, "unit": "%"}, {"measurement": "Doxorubicin.HCl % stability", "setting": "5% dextrose, pH 3.5 buffer, 16 hours", "value": 95.7, "unit": "%"}, {"measurement": "Doxorubicin.HCl % stability", "setting": "5% dextrose, pH 3.5 buffer, 24 hours", "value": 93.7, "unit": "%"}, {"measurement": "Doxorubicin.HCl % stability", "setting": "5% dextrose, pH 3.5 buffer, 48 hours", "value": 81.8, "unit": "%"}, {"measurement": "Doxorubicin.HCl % stability", "setting": "5% dextrose, pH 3.5 buffer, 72 hours", "value": 66.8, "unit": "%"}, {"measurement": "Doxorubicin.HCl % stability", "setting": "5% dextrose, pH 3.5 buffer, 96 hours", "value": 61.6, "unit": "%"}, {"measurement": "Doxorubicin.HCl % stability", "setting": "5% dextrose, pH 4.0 buffer, 0 hours", "value": 100.0, "unit": "%"}, {"measurement": "Doxorubicin.HCl % stability", "setting": "5% dextrose, pH 4.0 buffer, 8 hours", "value": 95.5, "unit": "%"}, {"measurement": "Doxorubicin.HCl % stability", "setting": "5% dextrose, pH 4.0 buffer, 16 hours", "value": 85.6, "unit": "%"}, {"measurement": "Doxorubicin.HCl % stability", "setting": "5% dextrose, pH 4.0 buffer, 48 hours", "value": 65.5, "unit": "%"}, {"measurement": "Doxorubicin.HCl % stability", "setting": "5% dextrose, pH 4.0 buffer, 72 hours", "value": 53.9, "unit": "%"}, {"measurement": "Doxorubicin.HCl % stability", "setting": "5% dextrose, pH 5.0 buffer, 0 hours", "value": 100.0, "unit": "%"}, {"measurement": "Doxorubicin.HCl % stability", "setting": "5% dextrose, pH 5.0 buffer, 8 hours", "value": 94.7, "unit": "%"}, {"measurement": "Doxorubicin.HCl % stability", "setting": "5% dextrose, pH 5.0 buffer, 16 hours", "value": 83.2, "unit": "%"}, {"measurement": "Doxorubicin.HCl % stability", "setting": "5% dextrose, pH 5.0 buffer, 24 hours", "value": 79.9, "unit": "%"}, {"measurement": "Doxorubicin.HCl % stability", "setting": "5% dextrose, pH 5.0 buffer, 34 hours", "value": 70.4, "unit": "%"}, {"measurement": "Doxorubicin.HCl % stability", "setting": "5% dextrose, pH 5.0 buffer, 48 hours", "value": 57.8, "unit": "%"}, {"measurement": "Doxorubicin.HCl % stability", "setting": "5% dextrose, pH 5.5 buffer, 0 hours", "value": 100.0, "unit": "%"}, {"measurement": "Doxorubicin.HCl % stability", "setting": "5% dextrose, pH 5.5 buffer, 8 hours", "value": 92.5, "unit": "%"}, {"measurement": "Doxorubicin.HCl % stability", "setting": "5% dextrose, pH 5.5 buffer, 16 hours", "value": 73.8, "unit": "%"}, {"measurement": "Doxorubicin.HCl % stability", "setting": "5% dextrose, pH 5.5 buffer, 24 hours", "value": 62.6, "unit": "%"}, {"measurement": "Doxorubicin.HCl % stability", "setting": "5% dextrose, pH 5.5 buffer, 34 hours", "value": 54.8, "unit": "%"}, {"measurement": "Kobs × 10^3", "setting": "sterile water, Acetate pH 4.0, 55° C.", "value": "269.8 1/days"}, {"measurement": "Kobs × 10^3", "setting": "sterile water, Acetate pH 5.0, 55° C.", "value": "322.6 1/days"}, {"measurement": "Kobs × 10^3", "setting": "sterile water, Acetate pH 5.5, 55° C.", "value": "415.4 1/days"}, {"measurement": "Kobs × 10^3", "setting": "sterile water, Formate pH 3.5, 55° C.", "value": "96.7 1/days"}, {"measurement": "Kobs × 10^3", "setting": "sterile water, Glycine-HCl pH 2.0, 55° C.", "value": "309.5 1/days"}, {"measurement": "Kobs × 10^3", "setting": "sterile water, Glycine-HCl pH 2.5, 55° C.", "value": "138.3 1/days"}, {"measurement": "Kobs × 10^3", "setting": "sterile water, Glycine-HCl pH 3.0, 55° C.", "value": "93.1 1/days"}, {"measurement": "Doxorubicin.HCl % stability", "setting": "sterile water, pH 2.0 buffer, 0 hours", "value": 100.0, "unit": "%"}, {"measurement": "Doxorubicin.HCl % stability", "setting": "sterile water, pH 2.0 buffer, 8 hours", "value": 93.6, "unit": "%"}, {"measurement": "Doxorubicin.HCl % stability", "setting": "sterile water, pH 2.0 buffer, 16 hours", "value": 82.6, "unit": "%"}, {"measurement": "Doxorubicin.HCl % stability", "setting": "sterile water, pH 2.0 buffer, 24 hours", "value": 76.9, "unit": "%"}, {"measurement": "Doxorubicin.HCl % stability", "setting": "sterile water, pH 2.0 buffer, 48 hours", "value": 56.6, "unit": "%"}, {"measurement": "Doxorubicin.HCl % stability", "setting": "sterile water, pH 2.0 buffer, 72 hours", "value": 39.6, "unit": "%"}, {"measurement": "Doxorubicin.HCl % stability", "setting": "sterile water, pH 2.5 buffer, 0 hours", "value": 100.0, "unit": "%"}, {"measurement": "Doxorubicin.HCl % stability", "setting": "sterile water, pH 2.5 buffer, 8 hours", "value": 96.7, "unit": "%"}, {"measurement": "Doxorubicin.HCl % stability", "setting": "sterile water, pH 2.5 buffer, 16 hours", "value": 92.1, "unit": "%"}, {"measurement": "Doxorubicin.HCl % stability", "setting": "sterile water, pH 2.5 buffer, 24 hours", "value": 86.2, "unit": "%"}, {"measurement": "Doxorubicin.HCl % stability", "setting": "sterile water, pH 2.5 buffer, 48 hours", "value": 78.2, "unit": "%"}, {"measurement": "Doxorubicin.HCl % stability", "setting": "sterile water, pH 3.0 buffer, 0 hours", "value": 100.0, "unit": "%"}, {"measurement": "Doxorubicin.HCl % stability", "setting": "sterile water, pH 3.0 buffer, 8 hours", "value": 97.8, "unit": "%"}, {"measurement": "Doxorubicin.HCl % stability", "setting": "sterile water, pH 3.0 buffer, 16 hours", "value": 93.9, "unit": "%"}, {"measurement": "Doxorubicin.HCl % stability", "setting": "sterile water, pH 3.0 buffer, 24 hours", "value": 91.4, "unit": "%"}, {"measurement": "Doxorubicin.HCl % stability", "setting": "sterile water, pH 3.0 buffer, 48 hours", "value": 84.7, "unit": "%"}, {"measurement": "Doxorubicin.HCl % stability", "setting": "sterile water, pH 3.0 buffer, 72 hours", "value": 76.1, "unit": "%"}, {"measurement": "Doxorubicin.HCl % stability", "setting": "sterile water, pH 3.0 buffer, 120 hours", "value": 62.8, "unit": "%"}, {"measurement": "Doxorubicin.HCl % stability", "setting": "sterile water, pH 3.5 buffer, 0 hours", "value": 100.0, "unit": "%"}, {"measurement": "Doxorubicin.HCl % stability", "setting": "sterile water, pH 3.5 buffer, 8 hours", "value": 95.8, "unit": "%"}, {"measurement": "Doxorubicin.HCl % stability", "setting": "sterile water, pH 3.5 buffer, 16 hours", "value": 92.7, "unit": "%"}, {"measurement": "Doxorubicin.HCl % stability", "setting": "sterile water, pH 3.5 buffer, 24 hours", "value": 90.4, "unit": "%"}, {"measurement": "Doxorubicin.HCl % stability", "setting": "sterile water, pH 3.5 buffer, 48 hours", "value": 81.1, "unit": "%"}, {"measurement": "Doxorubicin.HCl % stability", "setting": "sterile water, pH 3.5 buffer, 72 hours", "value": 75.6, "unit": "%"}, {"measurement": "Doxorubicin.HCl % stability", "setting": "sterile water, pH 3.5 buffer, 120 hours", "value": 61.0, "unit": "%"}, {"measurement": "Doxorubicin.HCl % stability", "setting": "sterile water, pH 4.0 buffer, 0 hours", "value": 100.0, "unit": "%"}, {"measurement": "Doxorubicin.HCl % stability", "setting": "sterile water, pH 4.0 buffer, 8 hours", "value": 88.0, "unit": "%"}, {"measurement": "Doxorubicin.HCl % stability", "setting": "sterile water, pH 4.0 buffer, 16 hours", "value": 82.7, "unit": "%"}, {"measurement": "Doxorubicin.HCl % stability", "setting": "sterile water, pH 4.0 buffer, 24 hours", "value": 76.8, "unit": "%"}, {"measurement": "Doxorubicin.HCl % stability", "setting": "sterile water, pH 4.0 buffer, 48 hours", "value": 57.4, "unit": "%"}, {"measurement": "Doxorubicin.HCl % stability", "setting": "sterile water, pH 5.0 buffer, 0 hours", "value": 100.0}, {"measurement": "Doxorubicin.HCl % stability", "setting": "sterile water, pH 5.0 buffer, 8 hours", "value": 90.3}, {"measurement": "Doxorubicin.HCl % stability", "setting": "sterile water, pH 5.0 buffer, 16 hours", "value": 83.6}, {"measurement": "Doxorubicin.HCl % stability", "setting": "sterile water, pH 5.0 buffer, 24 hours", "value": 74.9}, {"measurement": "Doxorubicin.HCl % stability", "setting": "sterile water, pH 5.5 buffer, 0 hours", "value": 100.0, "unit": "%"}, {"measurement": "Doxorubicin.HCl % stability", "setting": "sterile water, pH 5.5 buffer, 8 hours", "value": 88.3, "unit": "%"}, {"measurement": "Doxorubicin.HCl % stability", "setting": "sterile water, pH 5.5 buffer, 16 hours", "value": 69.7, "unit": "%"}, {"measurement": "Doxorubicin.HCl % stability", "setting": "sterile water, pH 5.5 buffer, 24 hours", "value": 60.0, "unit": "%"}, {"measurement": "Doxorubicin.HCl % stability", "setting": "sterile water, pH 5.5 buffer, 48 hours", "value": 44.1, "unit": "%"}]}
